Values after ≈ are worked out from the molar mass of the structure shown.

One assay relates to Mannheimia haemolytica MH 6357 (M7/2, reference strain, cattle infection strain). The assay is described as follows: MIC, broth-microdilution (CLSI VET01-A4), strain MH 6357. Format: cell-based. The following applies: Mannheimia haemolytica strain MH 6357, broth-microdilution; unit assumed. A digest of the protocol:
(§1)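 Growth inhibition is scored visually on a doubling dilution series. The reported MIC corresponds to the lowest concentration free of turbidity, with results assessed under CLSI VET01-S3.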
For orientation: Dilution methods test growth across graded concentrations, often in twofold steps.
In turn, `O=C(N[C@@H](CO)C(=O)NO)c1ccc(C#Cc2ccc(CN3CCCC3)cc2)cc1` [Compound 145] yielded an MIC MH 6357 of 6.3 µg/mL (≈ 15.5 µM).

In turn, `CC(C)([C@H](NC(=O)c1ccc(C#Cc2ccc(CNCc3nccs3)nc2)cc1)C(=O)NO)S(C)(=O)=O` [Compound 374] came in with an MIC MH 6357 of 0.8 µg/mL (≈ 1.48 µM).

Consider `CC[C@H](C)[C@H](NC(=O)c1ccc(C#Cc2ccc(CNCc3ncc[nH]3)cc2)cc1)C(=O)NO` [Compound 184], for which the MIC MH 6357 is 12.5 µg/mL (≈ 27.2 µM).

With `COc1ccc(CNCc2ccc(C#Cc3ccc(C(=O)N[C@H](C(=O)NO)C(C)(C)O)cc3)s2)cc1` [Compound 295], the MIC MH 6357 is at most 0.1 µg/mL.

The subject of another assay is Mannheimia haemolytica MH 6374 (ATCC 33396, reference strain). Description: MIC, broth-microdilution (CLSI VET01-A4), strain MH 6374. Format: cell-based. Particulars: Mannheimia haemolytica strain MH 6374, broth-microdilution; unit assumed. A digest of the protocol:
as §1
`O=C(N[C@@H](CO)C(=O)NO)c1ccc(C#Cc2ccc(CN3CCCC3)cc2)cc1` [Compound 145] came in with an MIC MH 6374 of 25 µg/mL (≈ 61.4 µM).

Molecule `CC(C)([C@H](NC(=O)c1ccc(C#Cc2ccc(CNCc3nccs3)nc2)cc1)C(=O)NO)S(C)(=O)=O` [Compound 374] gave an MIC MH 6374 of 0.8 µg/mL (≈ 1.48 µM).

`CC[C@H](C)[C@H](NC(=O)c1ccc(C#Cc2ccc(CNCc3ncc[nH]3)cc2)cc1)C(=O)NO` [Compound 184] registered an MIC MH 6374 of 6.3 µg/mL (≈ 13.7 µM).

As to `COc1ccc(CNCc2ccc(C#Cc3ccc(C(=O)N[C@H](C(=O)NO)C(C)(C)O)cc3)s2)cc1` [Compound 295], the MIC MH 6374 came to 0.4 µg/mL (≈ 0.788 µM).

The next assay deals with Mannheimia haemolytica MH 10720 (154, BRD field isolate). Description: MIC, broth-microdilution (CLSI VET01-A4), strain MH 10720. Format: cell-based. Particulars: Mannheimia haemolytica strain MH 10720, broth-microdilution; unit assumed. A digest of the protocol:
as §1
In the case of `O=C(N[C@@H](CO)C(=O)NO)c1ccc(C#Cc2ccc(CN3CCCC3)cc2)cc1` [Compound 145], the MIC MH 10720 came to 3.1 µg/mL (≈ 7.61 µM).

As to `CC(C)([C@H](NC(=O)c1ccc(C#Cc2ccc(CNCc3nccs3)nc2)cc1)C(=O)NO)S(C)(=O)=O` [Compound 374], the MIC MH 10720 worked out at 0.4 µg/mL (≈ 0.738 µM).

`CC[C@H](C)[C@H](NC(=O)c1ccc(C#Cc2ccc(CNCc3ncc[nH]3)cc2)cc1)C(=O)NO` [Compound 184] gave an MIC MH 10720 of 0.8 µg/mL (≈ 1.74 µM).

`COc1ccc(CNCc2ccc(C#Cc3ccc(C(=O)N[C@H](C(=O)NO)C(C)(C)O)cc3)s2)cc1` [Compound 295] displayed an MIC MH 10720 of at most 0.1 µg/mL.

The next assay has as its system Mannheimia haemolytica MH 12587 (1071, BRD field isolate, macrolide-resistance: erm+, E+). Description: MIC, broth-microdilution (CLSI VET01-A4), strain MH 12587. Particulars: Mannheimia haemolytica strain MH 12587, broth-microdilution; unit assumed. It is filed as cell-based. A digest of the protocol:
as §1
In turn, `O=C(N[C@@H](CO)C(=O)NO)c1ccc(C#Cc2ccc(CN3CCCC3)cc2)cc1` [Compound 145] came in with an MIC MH 12587 of 25 µg/mL (≈ 61.4 µM).

`CC(C)([C@H](NC(=O)c1ccc(C#Cc2ccc(CNCc3nccs3)nc2)cc1)C(=O)NO)S(C)(=O)=O` [Compound 374]: the MIC MH 12587 is 3.1 µg/mL (≈ 5.72 µM).

As for `CC[C@H](C)[C@H](NC(=O)c1ccc(C#Cc2ccc(CNCc3ncc[nH]3)cc2)cc1)C(=O)NO` [Compound 184], the MIC MH 12587 came out at 12.5 µg/mL (≈ 27.2 µM).

In the case of `COc1ccc(CNCc2ccc(C#Cc3ccc(C(=O)N[C@H](C(=O)NO)C(C)(C)O)cc3)s2)cc1` [Compound 295], the MIC MH 12587 amounted to 0.8 µg/mL (≈ 1.58 µM).

Another assay relates to Mannheimia haemolytica MH 13065 (XB0446-6003.9, BRD field isolate). Description: MIC, broth-microdilution (CLSI VET01-A4), strain MH 13065. It is filed as cell-based. Particulars: Mannheimia haemolytica strain MH 13065, broth-microdilution; unit assumed. A digest of the protocol:
as §1
The molecule `O=C(N[C@@H](CO)C(=O)NO)c1ccc(C#Cc2ccc(CN3CCCC3)cc2)cc1` [Compound 145] gave an MIC MH 13065 of 12.5 µg/mL (≈ 30.7 µM).

`CC(C)([C@H](NC(=O)c1ccc(C#Cc2ccc(CNCc3nccs3)nc2)cc1)C(=O)NO)S(C)(=O)=O` [Compound 374]: the MIC MH 13065 is 1.6 µg/mL (≈ 2.95 µM).

For `CC[C@H](C)[C@H](NC(=O)c1ccc(C#Cc2ccc(CNCc3ncc[nH]3)cc2)cc1)C(=O)NO` [Compound 184], the MIC MH 13065 stood at 6.3 µg/mL (≈ 13.7 µM).

In turn, `COc1ccc(CNCc2ccc(C#Cc3ccc(C(=O)N[C@H](C(=O)NO)C(C)(C)O)cc3)s2)cc1` [Compound 295] returned an MIC MH 13065 of 0.2 µg/mL (≈ 0.394 µM).

The next assay deals with Mannheimia haemolytica MH 13093 (XB0472-6014.1, BRD field isolate). Description: MIC, broth-microdilution (CLSI VET01-A4), strain MH 13093. The following applies: Mannheimia haemolytica strain MH 13093, broth-microdilution; unit assumed. Format: cell-based. Put shortly: as §1
`O=C(N[C@@H](CO)C(=O)NO)c1ccc(C#Cc2ccc(CN3CCCC3)cc2)cc1` [Compound 145]: the MIC MH 13093 was determined as 12.5 µg/mL (≈ 30.7 µM).

In turn, `CC(C)([C@H](NC(=O)c1ccc(C#Cc2ccc(CNCc3nccs3)nc2)cc1)C(=O)NO)S(C)(=O)=O` [Compound 374] registered an MIC MH 13093 of 3.1 µg/mL (≈ 5.72 µM).

The molecule `CC[C@H](C)[C@H](NC(=O)c1ccc(C#Cc2ccc(CNCc3ncc[nH]3)cc2)cc1)C(=O)NO` [Compound 184] registered an MIC MH 13093 of 6.3 µg/mL (≈ 13.7 µM).

Turning to `COc1ccc(CNCc2ccc(C#Cc3ccc(C(=O)N[C@H](C(=O)NO)C(C)(C)O)cc3)s2)cc1` [Compound 295], the MIC MH 13093 amounted to 0.4 µg/mL (≈ 0.788 µM).

The next assay has as its system Pasteurella multocida PM 6267 (P 2225 (L386), reference strain, mouse infection strain). Description: MIC, broth-microdilution (CLSI VET01-A4), strain PM 6267. Format: cell-based. The following applies: Pasteurella multocida strain PM 6267, broth-microdilution; unit assumed. A digest of the protocol: as §1
Consider `O=C(N[C@@H](CO)C(=O)NO)c1ccc(C#Cc2ccc(CN3CCCC3)cc2)cc1` [Compound 145], for which the MIC PM 6267 worked out at 3.1 µg/mL (≈ 7.61 µM).

With `CC(C)([C@H](NC(=O)c1ccc(C#Cc2ccc(CNCc3nccs3)nc2)cc1)C(=O)NO)S(C)(=O)=O` [Compound 374], the MIC PM 6267 amounted to 0.2 µg/mL (≈ 0.369 µM).

`CC[C@H](C)[C@H](NC(=O)c1ccc(C#Cc2ccc(CNCc3ncc[nH]3)cc2)cc1)C(=O)NO` [Compound 184] gave an MIC PM 6267 of 0.4 µg/mL (≈ 0.87 µM).

`COc1ccc(CNCc2ccc(C#Cc3ccc(C(=O)N[C@H](C(=O)NO)C(C)(C)O)cc3)s2)cc1` [Compound 295] returned an MIC PM 6267 of 0.8 µg/mL (≈ 1.58 µM).

A further assay relates to Pasteurella multocida PM 6391 (ATCC 43137, reference strain). The assay is described as follows: MIC, broth-microdilution (CLSI VET01-A4), strain PM 6391. It is filed as cell-based. Particulars: Pasteurella multocida strain PM 6391, broth-microdilution; unit assumed. A digest of the protocol: as §1
`O=C(N[C@@H](CO)C(=O)NO)c1ccc(C#Cc2ccc(CN3CCCC3)cc2)cc1` [Compound 145]: the MIC PM 6391 amounted to 6.3 µg/mL (≈ 15.5 µM).

In turn, `CC(C)([C@H](NC(=O)c1ccc(C#Cc2ccc(CNCc3nccs3)nc2)cc1)C(=O)NO)S(C)(=O)=O` [Compound 374] yielded an MIC PM 6391 of 0.2 µg/mL (≈ 0.369 µM).

Turning to `CC[C@H](C)[C@H](NC(=O)c1ccc(C#Cc2ccc(CNCc3ncc[nH]3)cc2)cc1)C(=O)NO` [Compound 184], the MIC PM 6391 amounted to 3.1 µg/mL (≈ 6.75 µM).

As for `COc1ccc(CNCc2ccc(C#Cc3ccc(C(=O)N[C@H](C(=O)NO)C(C)(C)O)cc3)s2)cc1` [Compound 295], the MIC PM 6391 was determined as 0.4 µg/mL (≈ 0.788 µM).

For another assay, the system named is Pasteurella multocida PM 10775 (080130003051, BRD field isolate). Description: MIC, broth-microdilution (CLSI VET01-A4), strain PM 10775. It is filed as cell-based. Particulars: Pasteurella multocida strain PM 10775, broth-microdilution; unit assumed. A digest of the protocol: as §1
Molecule `O=C(N[C@@H](CO)C(=O)NO)c1ccc(C#Cc2ccc(CN3CCCC3)cc2)cc1` [Compound 145] displayed an MIC PM 10775 of 0.2 µg/mL (≈ 0.491 µM).

`CC(C)([C@H](NC(=O)c1ccc(C#Cc2ccc(CNCc3nccs3)nc2)cc1)C(=O)NO)S(C)(=O)=O` [Compound 374]: the MIC PM 10775 is at most 0.1 µg/mL.

In turn, `CC[C@H](C)[C@H](NC(=O)c1ccc(C#Cc2ccc(CNCc3ncc[nH]3)cc2)cc1)C(=O)NO` [Compound 184] showed an MIC PM 10775 of at most 0.1 µg/mL.

For the molecule `COc1ccc(CNCc2ccc(C#Cc3ccc(C(=O)N[C@H](C(=O)NO)C(C)(C)O)cc3)s2)cc1` [Compound 295], the MIC PM 10775 is at most 0.1 µg/mL.

The test system of another assay is Pasteurella multocida PM 12080 (IV102277-0093, BRD field isolate). Description: MIC, broth-microdilution (CLSI VET01-A4), strain PM 12080. Format: cell-based. Particulars: Pasteurella multocida strain PM 12080, broth-microdilution; unit assumed. Put shortly: as §1
Regarding `O=C(N[C@@H](CO)C(=O)NO)c1ccc(C#Cc2ccc(CN3CCCC3)cc2)cc1` [Compound 145], the MIC PM 12080 came to 6.3 µg/mL (≈ 15.5 µM).

`CC(C)([C@H](NC(=O)c1ccc(C#Cc2ccc(CNCc3nccs3)nc2)cc1)C(=O)NO)S(C)(=O)=O` [Compound 374] registered an MIC PM 12080 of at most 0.1 µg/mL.

Regarding `CC[C@H](C)[C@H](NC(=O)c1ccc(C#Cc2ccc(CNCc3ncc[nH]3)cc2)cc1)C(=O)NO` [Compound 184], the MIC PM 12080 came to 1.6 µg/mL (≈ 3.48 µM).

`COc1ccc(CNCc2ccc(C#Cc3ccc(C(=O)N[C@H](C(=O)NO)C(C)(C)O)cc3)s2)cc1` [Compound 295] displayed an MIC PM 12080 of at most 0.1 µg/mL.

The values are drawn from patent US11034650B2, “Compounds useful for treating a Mannheimia haemolytica or Histophilus somni infection” (Intervet Inc., priority 2016, dated 2021).
